# Assay results as given in PubChem BioAssay (NCI).
#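 48-hour exposure; five concentrations; linearly interpolated endpoints. Here, GI50 denotes the concentration required for 50% inhibition of growth. TGI denotes the concentration required for complete inhibition of growth.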
# Key:
# Assay in all cases: DTP human tumour cell line panel, 48 h
# SK-OV-3 ovarian = system: SK-OV-3 ovarian
# MOLT-4 leukemia = system: MOLT-4 leukemia
# MDA-MB-435 = system: MDA-MB-435
# DU-145 prostate = system: DU-145 prostate
# SK-MEL-5 melanoma = system: SK-MEL-5 melanoma
# HL-60(TB) leukemia = system: HL-60(TB) leukemia
# CAKI-1 renal = system: CAKI-1 renal
# HT29 colon = system: HT29 colon
# MDA-MB-468 breast = system: MDA-MB-468 breast
# MCF7 breast = system: MCF7 breast
# NCI-H226 lung = system: NCI-H226 lung
# HS 578T breast = system: HS 578T breast
# 786-0 renal = system: 786-0 renal
# NCI-H460 lung = system: NCI-H460 lung
# OVCAR-8 ovarian = system: OVCAR-8 ovarian
# SF-295 CNS = system: SF-295 CNS
# HCT-15 colon = system: HCT-15 colon
# HCC-2998 colon = system: HCC-2998 colon
# SK-MEL-2 melanoma = system: SK-MEL-2 melanoma
# OVCAR-3 ovarian = system: OVCAR-3 ovarian
# A549 NSCLC = system: A549 NSCLC
# UO-31 renal = system: UO-31 renal
# COLO 205 colon = system: COLO 205 colon
# LOX IMVI melanoma = system: LOX IMVI melanoma
# PC-3 prostate = system: PC-3 prostate
# T-47D breast = system: T-47D breast
# SNB-75 CNS = system: SNB-75 CNS
# NCI-H522 lung = system: NCI-H522 lung
# NCI-H23 lung = system: NCI-H23 lung
# MALME-3M melanoma = system: MALME-3M melanoma
# TK-10 renal = system: TK-10 renal
# SN12C renal = system: SN12C renal
# A498 renal = system: A498 renal
# U251 CNS = system: U251 CNS
# UACC-257 melanoma = system: UACC-257 melanoma
# K-562 leukemia = system: K-562 leukemia
# NCI/ADR-RES ovarian = system: NCI/ADR-RES ovarian
# EKVX NSCLC = system: EKVX NSCLC
# SK-MEL-28 melanoma = system: SK-MEL-28 melanoma
# IGROV1 ovarian = system: IGROV1 ovarian
# CCRF-CEM leukemia = system: CCRF-CEM leukemia
# ACHN renal = system: ACHN renal
# OVCAR-5 ovarian = system: OVCAR-5 ovarian
# SF-268 CNS = system: SF-268 CNS
# SW-620 colon = system: SW-620 colon
# SF-539 CNS = system: SF-539 CNS
# RXF 393 renal = system: RXF 393 renal
# M14 melanoma = system: M14 melanoma
# MDA-MB-231 breast = system: MDA-MB-231 breast
# HOP-92 NSCLC = system: HOP-92 NSCLC
# SNB-19 CNS = system: SNB-19 CNS
# UACC-62 melanoma = system: UACC-62 melanoma
# OVCAR-4 ovarian = system: OVCAR-4 ovarian
# RPMI-8226 leukemia = system: RPMI-8226 leukemia
# HOP-62 NSCLC = system: HOP-62 NSCLC
# KM12 colon = system: KM12 colon
# HCT-116 colon = system: HCT-116 colon
# BT-549 breast = system: BT-549 breast
# SR leukemia = system: SR leukemia
smiles,measurement,setting,value
CC(C)(C)c1cc(/C=C2\S/C(=N/c3ncn[nH]3)NC2=O)cc(C(C)(C)C)c1O,GI50,SK-OV-3 ovarian,4.83 µM
same,TGI,SK-OV-3 ovarian,20.5 µM
same,GI50,MOLT-4 leukemia,1.16 µM
same,TGI,MOLT-4 leukemia,13.7 µM
same,GI50,MDA-MB-435,2.77 µM
same,TGI,MDA-MB-435,14.9 µM
same,GI50,DU-145 prostate,2.53 µM
same,TGI,DU-145 prostate,21.5 µM
same,GI50,SK-MEL-5 melanoma,1.36 µM
same,TGI,SK-MEL-5 melanoma,9.78 µM
same,GI50,HL-60(TB) leukemia,2.73 µM
same,TGI,HL-60(TB) leukemia,18 µM
same,GI50,CAKI-1 renal,1.37 µM
same,TGI,CAKI-1 renal,16.7 µM
same,GI50,HT29 colon,3.03 µM
same,TGI,HT29 colon,19.4 µM
same,GI50,MDA-MB-468 breast,2.75 µM
same,TGI,MDA-MB-468 breast,15.5 µM
same,GI50,MCF7 breast,1.83 µM
same,TGI,MCF7 breast,13 µM
same,GI50,NCI-H226 lung,1.8 µM
same,TGI,NCI-H226 lung,14.3 µM
same,GI50,HS 578T breast,2.37 µM
same,TGI,HS 578T breast,8.47 µM
same,GI50,786-0 renal,2.95 µM
same,TGI,786-0 renal,13.3 µM
same,GI50,NCI-H460 lung,0.402 µM
same,TGI,NCI-H460 lung,10.1 µM
same,GI50,OVCAR-8 ovarian,1.76 µM
same,TGI,OVCAR-8 ovarian,14.3 µM
same,GI50,SF-295 CNS,0.593 µM
same,TGI,SF-295 CNS,12.7 µM
same,GI50,HCT-15 colon,0.455 µM
same,TGI,HCT-15 colon,12.8 µM
same,GI50,HCC-2998 colon,3.23 µM
same,TGI,HCC-2998 colon,16.9 µM
same,GI50,SK-MEL-2 melanoma,2.63 µM
same,TGI,SK-MEL-2 melanoma,15.9 µM
same,GI50,OVCAR-3 ovarian,2.4 µM
same,TGI,OVCAR-3 ovarian,15.2 µM
same,GI50,A549 NSCLC,1.12 µM
same,TGI,A549 NSCLC,13.8 µM
same,GI50,UO-31 renal,0.882 µM
same,TGI,UO-31 renal,12.3 µM
same,GI50,COLO 205 colon,1.99 µM
same,TGI,COLO 205 colon,12.8 µM
same,GI50,LOX IMVI melanoma,0.71 µM
same,TGI,LOX IMVI melanoma,12.7 µM
same,GI50,PC-3 prostate,0.762 µM
same,TGI,PC-3 prostate,22.1 µM
same,GI50,T-47D breast,2.29 µM
same,TGI,T-47D breast,44.4 µM
same,GI50,SNB-75 CNS,2.34 µM
same,TGI,SNB-75 CNS,13.6 µM
same,GI50,NCI-H522 lung,3.78 µM
same,TGI,NCI-H522 lung,17.9 µM
same,GI50,NCI-H23 lung,2.45 µM
same,TGI,NCI-H23 lung,17.3 µM
same,GI50,MALME-3M melanoma,3.74 µM
same,TGI,MALME-3M melanoma,18.9 µM
same,GI50,TK-10 renal,4.82 µM
same,TGI,TK-10 renal,20.2 µM
same,GI50,SN12C renal,2.08 µM
same,TGI,SN12C renal,13.3 µM
same,GI50,A498 renal,1.77 µM
same,TGI,A498 renal,10.5 µM
same,GI50,U251 CNS,0.801 µM
same,TGI,U251 CNS,7.9 µM
same,GI50,UACC-257 melanoma,3.85 µM
same,TGI,UACC-257 melanoma,16.7 µM
same,GI50,K-562 leukemia,1.44 µM
same,TGI,K-562 leukemia,54.3 µM
same,GI50,NCI/ADR-RES ovarian,0.472 µM
same,TGI,NCI/ADR-RES ovarian,14.4 µM
same,GI50,EKVX NSCLC,2.15 µM
same,TGI,EKVX NSCLC,12.1 µM
same,GI50,SK-MEL-28 melanoma,2.93 µM
same,TGI,SK-MEL-28 melanoma,14.4 µM
same,GI50,IGROV1 ovarian,2.04 µM
same,TGI,IGROV1 ovarian,14.7 µM
same,GI50,CCRF-CEM leukemia,0.706 µM
same,TGI,CCRF-CEM leukemia,6.5 µM
same,GI50,ACHN renal,0.691 µM
same,TGI,ACHN renal,12.6 µM
same,GI50,OVCAR-5 ovarian,4.52 µM
same,TGI,OVCAR-5 ovarian,17.7 µM
same,GI50,SF-268 CNS,2.61 µM
same,TGI,SF-268 CNS,16.6 µM
same,GI50,SW-620 colon,2.13 µM
same,TGI,SW-620 colon,13.7 µM
same,GI50,SF-539 CNS,2.89 µM
same,TGI,SF-539 CNS,12.6 µM
same,GI50,RXF 393 renal,2.03 µM
same,TGI,RXF 393 renal,8.35 µM
same,GI50,M14 melanoma,1.98 µM
same,TGI,M14 melanoma,16.3 µM
same,GI50,MDA-MB-231 breast,2.91 µM
same,TGI,MDA-MB-231 breast,14.8 µM
same,GI50,HOP-92 NSCLC,1.72 µM
same,TGI,HOP-92 NSCLC,13.4 µM
same,GI50,SNB-19 CNS,1.5 µM
same,TGI,SNB-19 CNS,12.9 µM
same,GI50,UACC-62 melanoma,2.28 µM
same,TGI,UACC-62 melanoma,11.8 µM
same,GI50,OVCAR-4 ovarian,2.31 µM
same,TGI,OVCAR-4 ovarian,16.3 µM
same,GI50,RPMI-8226 leukemia,2.6 µM
same,TGI,RPMI-8226 leukemia,33.8 µM
same,GI50,HOP-62 NSCLC,0.999 µM
same,TGI,HOP-62 NSCLC,18.7 µM
same,GI50,KM12 colon,3.79 µM
same,TGI,KM12 colon,17 µM
same,GI50,HCT-116 colon,0.978 µM
same,TGI,HCT-116 colon,11.1 µM
same,GI50,BT-549 breast,2.31 µM
same,TGI,BT-549 breast,11.8 µM
same,GI50,SR leukemia,0.935 µM
same,TGI,SR leukemia,29.8 µM
